Read-outs that look alike come from different tables or passages of the source.
Assays:
His6-TEV-PPARγ-(234-505) = biological target: T1, His6-TEV-PPARγ-(234-505) (Homo sapiens, UniProt P37231); test: TR-FRET Assay to Measure Co-R Peptide Recruitment to PPARγ; assay type: biochemical; conditions: Co-R peptide (SMRT-ID2) recruitment; top final concentration 20 μM; read-out: TR-FRET i-Ag; AC50
T1 construct: The His6-TEV-PPARγ-(234-505) protein for assay was expressed and purified; TEV cleavage site (N); made in house
T1 sequence (P37231 234-505): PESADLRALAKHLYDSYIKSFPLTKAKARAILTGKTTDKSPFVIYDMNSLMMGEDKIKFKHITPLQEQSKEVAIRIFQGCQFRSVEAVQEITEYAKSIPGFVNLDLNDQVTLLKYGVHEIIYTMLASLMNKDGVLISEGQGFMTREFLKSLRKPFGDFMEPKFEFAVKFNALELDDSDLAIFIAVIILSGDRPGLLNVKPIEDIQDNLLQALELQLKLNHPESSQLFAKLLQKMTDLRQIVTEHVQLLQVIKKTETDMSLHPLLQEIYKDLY
Outline: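 Corepressor recruitment is measured by adding terbium-labeled anti-His antibody and FITC SMRT-ID2 peptide, at 5 and 200 nM final, after a 20-minute room-temperature protein–compound incubation. After one further hour, signal is converted to percent response between DMSO and 500 nM T0070907 wells.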

UM-UC-9 engineered cells = test: Cell proliferation / short-term viability assay, CellTiter-Glo 144 h; assay type: cell-based, human; conditions: read-out: CTGlo 144 h UMUC9.5, G150
Outline: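 Viability read by CellTiter-Glo 2.0 luminescence at day 7 versus DMSO-vehicle wells and a T0 plate measured on day 0. Cells: UM-UC-9 engineered assay-ready stocks, 500 cells/well in high-glucose DMEM with 10% FBS, 37° C, 5% CO2.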

Row | Compound | AC50 (His6-TEV-PPARγ-(234-505)) [µM] | IC50 (UM-UC-9 engineered cells) [µM] | IC50 (UM-UC-9 engineered cells; Homo sapiens, UM-UC-9, 144 h) [µM]
1 | COc1cc(-c2cc(C(=O)N3CCC(C(=O)NCc4nccnc4C4CC4CO)CC34CC4)n[nH]2)c(F)cn1 (mixture of isomers) [Example 481, (S)-4-(5-(5-fluoro-2-methoxypyridin-4-yl)-1H-pyrazole-3-carbonyl)-N-((3-((1S,2S)-2-(hydroxymethyl)cyclopropyl)pyrazin-2-yl)methyl)-4-azaspiro[2.5]octane-7-carboxamide and (S)-4-(5-(5-fluoro-2-methoxypyridin-4-yl)-1H-pyrazole-3-carbonyl)-N-((3-((1R,2R)-2-(hydroxymethyl)cyclopropyl)pyrazin-2-yl)methyl)-4-azaspiro[2.5]octane-7-carboxamide] | 0.129 | 1.22 | 
2 | COc1cc(-c2cc(C(=O)N3CCC(C(=O)NC4CCN(c5ccc(C#N)cn5)C4)CC34CC4)n[nH]2)c(F)cn1 (mixture of isomers) [Example 489, (S)—N—((R)-1-(5-cyanopyridin-2-yl)pyrrolidin-3-yl)-4-(5-(5-fluoro-2-methoxypyridin-4-yl)-1H-pyrazole-3-carbonyl)-4-azaspiro[2.5]octane-7-carboxamide and (S)—N—((S)-1-(5-cyanopyridin-2-yl)pyrrolidin-3-yl)-4-(5-(5-fluoro-2-methoxypyridin-4-yl)-1H-pyrazole-3-carbonyl)-4-azaspiro[2.5]octane-7-carboxamide] | 0.0007 | 0.0055 | 
3 | COc1cc(-c2cc(C(=O)N3CCC(C(=O)NC4CN(c5cnc(C)cn5)CC4(F)F)CC34CC4)n[nH]2)c(F)cn1 (mixture of isomers) [Example 490, (S)—N—((S)-4,4-difluoro-1-(5-methylpyrazin-2-yl)pyrrolidin-3-yl)-4-(5-(5-fluoro-2-methoxypyridin-4-yl)-1H-pyrazole-3-carbonyl)-4-azaspiro[2.5]octane-7-carboxamide and (S)—N—((R)-4,4-difluoro-1-(5-methylpyrazin-2-yl)pyrrolidin-3-yl)-4-(5-(5-fluoro-2-methoxypyridin-4-yl)-1H-pyrazole-3-carbonyl)-4-azaspiro[2.5]octane-7-carboxamide] | 0.0019 | 0.0173 | 
4 | COc1cc(-c2cc(C(=O)N3CCC(C(=O)NC4CCCn5c(C)nnc54)CC34CC4)n[nH]2)c(F)cn1 (mixture of isomers) [Example 492, (S)-4-(5-(5-fluoro-2-methoxypyridin-4-yl)-1H-pyrazole-3-carbonyl)-N—((S)-3-methyl-5,6,7,8-tetrahydro-[1,2,4]triazolo[4,3-a]pyridin-8-yl)-4-azaspiro[2.5]octane-7-carboxamide and (S)-4-(5-(5-fluoro-2-methoxypyridin-4-yl)-1H-pyrazole-3-carbonyl)-N—((R)-3-methyl-5,6,7,8-tetrahydro-[1,2,4]triazolo[4,3-a]pyridin-8-yl)-4-azaspiro[2.5]octane-7-carboxamide] | 0.454 | > 10 | 
5 | COc1cc(-c2cc(C(=O)N3CCC(C(=O)Nc4cnn5cc(C(C)O)ccc45)CC34CC4)n[nH]2)c(F)cn1 (mixture of isomers) [Example 495, (S)-4-(5-(5-fluoro-2-methoxypyridin-4-yl)-1H-pyrazole-3-carbonyl)-N-(6-((S)-1-hydroxyethyl)pyrazolo[1,5-a]pyridin-3-yl)-4-azaspiro[2.5]octane-7-carboxamide and (S)-4-(5-(5-fluoro-2-methoxypyridin-4-yl)-1H-pyrazole-3-carbonyl)-N-(6-((R)-1-hydroxyethyl)pyrazolo[1,5-a]pyridin-3-yl)-4-azaspiro[2.5]octane-7-carboxamide] | 0.0157 | 0.186 | 
6 | COc1cc(-c2cc(C(=O)N3CCC(C(=O)NC4CCC(C(F)(F)F)C(O)C4)CC34CC4)n[nH]2)c(F)cn1 (mixture of isomers) [Example 501, (S)-4-(5-(5-fluoro-2-methoxypyridin-4-yl)-1H-pyrazole-3-carbonyl)-N-((1R,3R,4S)-3-hydroxy-4-(trifluoromethyl)cyclohexyl)-4-azaspiro[2.5]octane-7-carboxamide and (S)-4-(5-(5-fluoro-2-methoxypyridin-4-yl)-1H-pyrazole-3-carbonyl)-N-((1S,3S,4R)-3-hydroxy-4-(trifluoromethyl)cyclohexyl)-4-azaspiro[2.5]octane-7-carboxamide] | 0.0054 | 0.013 | 
7 | COc1cc(-c2cc(C(=O)N3CCC(C(=O)NC4CCCn5cc(C(F)(F)F)nc54)CC34CC4)n[nH]2)c(F)cn1 (mixture of isomers) [Example 502, (S)-4-(5-(5-fluoro-2-methoxypyridin-4-yl)-1H-pyrazole-3-carbonyl)-N—((S)-2-(trifluoromethyl)-5,6,7,8-tetrahydroimidazo[1,2-a]pyridin-8-yl)-4-azaspiro[2.5]octane-7-carboxamide and (S)-4-(5-(5-fluoro-2-methoxypyridin-4-yl)-1H-pyrazole-3-carbonyl)-N—((R)-2-(trifluoromethyl)-5,6,7,8-tetrahydroimidazo[1,2-a]pyridin-8-yl)-4-azaspiro[2.5]octane-7-carboxamide] | 0.0118 | 0.0506 | 
8 | COc1cc(-c2cc(C(=O)N3CCC(C(=O)NCC4CCNCC4(F)F)CC34CC4)n[nH]2)c(F)cn1 (mixture of isomers) [Example 511, (S)—N—(((S)-3,3-difluoropiperidin-4-yl)methyl)-4-(5-(5-fluoro-2-methoxypyridin-4-yl)-1H-pyrazole-3-carbonyl)-4-azaspiro[2.5]octane-7-carboxamide and (S)—N—(((R)-3,3-difluoropiperidin-4-yl)methyl)-4-(5-(5-fluoro-2-methoxypyridin-4-yl)-1H-pyrazole-3-carbonyl)-4-azaspiro[2.5]octane-7-carboxamide] | 0.0106 | 0.0952 | 
9 | COc1cc(-c2cc(C(=O)N3CCC(C(=O)Nc4cnn5c4CC(O)CC5)CC34CC4)n[nH]2)c(F)cn1 (mixture of isomers) [Example 514, (S)-4-(5-(5-fluoro-2-methoxypyridin-4-yl)-1H-pyrazole-3-carbonyl)-N—((S)-5-hydroxy-4,5,6,7-tetrahydropyrazolo[1,5-a]pyridin-3-yl)-4-azaspiro[2.5]octane-7-carboxamide and (S)-4-(5-(5-fluoro-2-methoxypyridin-4-yl)-1H-pyrazole-3-carbonyl)-N—((R)-5-hydroxy-4,5,6,7-tetrahydropyrazolo[1,5-a]pyridin-3-yl)-4-azaspiro[2.5]octane-7-carboxamide] | 0.0337 | > 10 | 
10 | COc1cc(-c2cc(C(=O)N3CCC(C(=O)NC45CC(CO)(C4)OC5C)CC34CC4)n[nH]2)c(F)cn1 (mixture of isomers) [Example 518, (S)-4-(5-(5-fluoro-2-methoxypyridin-4-yl)-1H-pyrazole-3-carbonyl)-N—((R)-1-(hydroxymethyl)-3-methyl-2-oxabicyclo[2.1.1]hexan-4-yl)-4-azaspiro[2.5]octane-7-carboxamide and (S)-4-(5-(5-fluoro-2-methoxypyridin-4-yl)-1H-pyrazole-3-carbonyl)-N—((S)-1-(hydroxymethyl)-3-methyl-2-oxabicyclo[2.1.1]hexan-4-yl)-4-azaspiro[2.5]octane-7-carboxamide] | 0.149 | 4.05 | 
11 | COc1cc(-c2cc(C(=O)N3CCC(C(=O)NC4CCCC(O)(C(F)(F)F)C4)CC34CC4)n[nH]2)c(F)cn1 (mixture of isomers) [Example 524] | 0.128 | 0.341 | 
12 | CCC1CCC(NC(=O)C2CCN(C(=O)c3cc(-c4ccnc(OC)c4)[nH]n3)CC2)CC1 (racemic) [Example 108, N-(4-ethylcyclohexyl)-1-(5-(2-methoxypyridin-4-yl)-1H-pyrazole-3-carbonyl)piperidine-4-carboxamide] | 0.178 |  | 0.83
13 | COc1cc(-c2cc(C(=O)N3CCC(C(=O)NC4COCc5ccccc54)CC3)n[nH]2)c(Cl)cn1 (racemic) [Example 132, 1-(5-(5-chloro-2-methoxypyridin-4-yl)-1H-pyrazole-3-carbonyl)-N-(isochroman-4-yl)piperidine-4-carboxamide] | 0.0246 |  | 0.136
14 | COc1cc(-c2cc(C(=O)N3CCC(C(=O)NCC4CC(C)(C)O4)CC3)n[nH]2)c(Cl)cn1 (racemic) [Example 135, 1-(5-(5-chloro-2-methoxypyridin-4-yl)-1H-pyrazole-3-carbonyl)-N-((4,4-dimethyloxetan-2-yl)methyl)piperidine-4-carboxamide] | 0.483 |  | 2.65
15 | COc1cc(-c2cc(C(=O)N3CCC(C(=O)NC4CCC(F)(F)C4)CC3)n[nH]2)c(Cl)cn1 (racemic) [Example 175, 1-(5-(5-chloro-2-methoxypyridin-4-yl)-1H-pyrazole-3-carbonyl)-N-(3,3-difluorocyclopentyl)piperidine-4-carboxamide] | 0.349 |  | 1.64
16 | COc1cc(-c2cc(C(=O)N3CCC(C(=O)NCC4COC(C)(C)O4)CC3)n[nH]2)c(Cl)cn1 (racemic) [Example 185, 1-(5-(5-chloro-2-methoxypyridin-4-yl)-1H-pyrazole-3-carbonyl)-N-((2,2-dimethyl-1,3-dioxolan-4-yl)methyl)piperidine-4-carboxamide] | 0.735 |  | 1.55
